The subject of one assay is HT 22 cells. The experiment in a line: TNF-α and z-VAD-induced necroptosis, Alamar blue. The class given is cell-based. The settings on record: 1 ng/ml TNF-α with 50 μM z-VAD. As for the experimental part:
(§1) Graphs represent mean±s.e.m. ***P<0.0005, two-way ANOVA followed by Tukey's post hoc test (n=3). A PARP inhibitor, ABT-888 is used for the positive control. FIGS. 12B and 12C show in vitro oxidoreductase and tautomerase activity of MIF/PAAN with compound 41, 56, 76, or 77. FIGS. 12D and 12E show Alamar blue cell viability assay from SH-SY5Y cells pre-incubated with compound 41, 56, 76, or 77 in response to 0.5 μM staurosporine (STS) or from HT 22 cells incubated with 1 ng/ml of TNF-α with 50 μM z-VAD. A pan caspase inhibitor, z-VAD or necrostatin (Nec-1) is used for the positive control and PARP inhibitor, ABT-888 is used for negative control. Bars represent mean±s.e.m. ***P<0.0005, two-way ANOVA followed by Tukey's post hoc test (n=3). […] Bars represent mean±s.e.m. **P<0.005, ***P<0.0005, two-way ANOVA followed by Tukey's post hoc test (n=3).
(§2) FIGS. 14A-14G show the characterization of compound 121. […] Bars represent means±s.e.m. ***P<0.0005, two-way ANOVA followed by Tukey's post hoc test (n=4). […] Bars represent mean±s.e.m. ***P<0.0005, two-way ANOVA followed by Tukey's post hoc test (n=4). […] Bars represent means±s.e.m. **P<0.005, ***P<0.0005, one-way ANOVA followed by Tukey's post hoc test (n=3). […] Bar represent mean±s.e.m. ***P<0.0005, one-way ANOVA followed by Tukey's post hoc test (n=3). […] Quantification of inhibition of PARP-1 activity by compound 56, compound 121 and ABT-888 is shown. Graphs represent mean±s.e.m. ***P<0.0005, two-way ANOVA followed by Tukey's post hoc test (n=3). FIGS. 14F and 14G show Alamar blue cell viability assay from SH-SY5Y cells pre-incubated with either compound 56 or 121 in response to (14F) 0.5 μM staurosporine (STS) or (14G) from HT 22 cells incubated with 1 ng/ml of TNF-α with 50 μM z-VAD. Bars represent mean±s.e.m. ***P<0.0005, two-way ANOVA followed by Tukey's post hoc test (n=5).
(§3) Cell death and viability assessment. Primary cultured cortical neurons were treated with 5 μg/ml of α-syn PFF for 14 days and cell death was determined by staining of all nuclei with 7 μM Hoechst 33342 and dead cell nuclei with 2 μM propidium iodide (PI) (Invitrogen). The numbers of total and dead cells were counted with the Axiovision 4.6 software (Carl Zeiss). Cell viability was determined by fluorescence at an excitation wavelength 570 nm and an emission wavelength 585 nm using Alamar Blue (Invitrogen).
Background: The colour change of resazurin is a common sign of viable cells or microbes.

For another assay, the system named is cortical neurons. Briefly: Nuclear translocation of AIF and PAAN/MIF after α-syn PFF treatment in cortical neurons (subcellular fractionation). Format: cell-based, mouse. As to conditions: primary neuronal cultures. The text has this:
FIGS. 3A-3H show PAAN/MIF nuclease activity is required for prevention of α-syn PFF-induced neurotoxicity in neurons. […] See Donawho, et al. (2007) Clin. Cancer Res. 13:2728-37. Intensity of PAAN/MIF and AIF signal is shown in the graph. **P<0.005 versus the PBS control group in the nuclear (N) fraction, two-way ANOVA followed by Tukey's post hoc test. […] Intensity of AIF-bound PAAN/MIF is shown in the graph. *P<0.05, student's t-test. […] Scale bars, 20 μm. The white color in the merged images indicates the overlay of AIF, PAAN/MIF and Hoechst dye in the nucleus. The percentage of cells with nuclear localization of PAAN/MIF and AIF is shown in the graph. ***P<0.0005, student's t-test. […] Intensity of noncleaved genomic DNA is shown in the graph. ***P<0.0005, two-way ANOVA. […] Scale bar, 20 μm. […] Bars represent mean±s.e.m. ***P<0.0005, two-way ANOVA followed by Tukey's post hoc test (n=3). […] Bars represent mean±s.e.m. ***P<0.0005, two-way ANOVA followed by Tukey's post hoc test (n=5). […]
Subcellular fractionation. Subcellular fraction and quantification of relative levels of AIF and PAAN/MIF were performed as previously described. […] Each fractions were monitored by PARP-1 antibody (BD) for the nuclear fraction and HSP60 antibody (cell signaling) for the postnuclear fraction.

Assay [1] concerns SH-SY5Y cells. Briefly: Staurosporine (STS)-induced apoptotic cell death, Alamar blue. The class given is cell-based. As to conditions: 0.5 μM STS. As for the experimental part: as §1, §2, §3
In assay [2] the test system is SH-SY5Y cells. Briefly: MNNG-induced parthanatic cell death in SH-SY5Y cells (Alamar blue cell viability). The class given is cell-based. As to conditions: 50 μM MNNG for 15 min, viability after 24 h. The source says:
We developed an assay to screen for PAAN/MIF nuclease inhibitors. Single-stranded PAAN/MIF nuclease DNA substrate (FIG. 10A) was amine modified on the 5′ end and immobilized on a plate. Hybridization with a biotin-labeled complementary oligonucleotide followed by addition of streptavidin conjugated horseradish peroxidase enzyme (HRP) leads to retention of HRP on the surface within each well in the presence of intact PAAN/MIF nuclease DNA substrate, which can be quantitatively detected through colorimetric change at 450 nm using the HRP substrate 3,3′,5,5′-tetramethylbenzidine (TMB). In the presence of WT PAAN/MIF, there is reduced signal, indicative of cleavage of the PAAN/MIF nuclease substrate, while the signal is not attenuated without recombinant PAAN/MIF (FIGS. 1 and 10B). […] Thus, the rapafucin library containing 45,000 macrocyclic compounds in 3,000 pools of 15 compounds was screened using this assay. […] Several pools were identified that inhibit PAAN/MIF nuclease activity from the primary screen (FIG. 4A). […] Nine pools of compounds were identified that both inhibit PAAN/MIF cleavage of the substrate and protect against MNNG-induced parthanatic cell death by greater than 70% (FIG. 10D). […] Next, the 90 individual compounds in the 6 pools were synthesized and further assessed for inhibition of PAAN/MIF nuclease activity and MNNG-induced parthanatic cell death. Among them 12 compounds (compounds 16-18, 26-28, 41, 56, 66, 67, 76, and 77) were identified that block MIF nuclease activity and MNNG-induced parthanatic cell death by greater than 60% (FIG. 10F). Dose dependence (0.1 to 1.0 μM) were assessed for the 12 compounds against MNNG-induced parthanatic cell death (FIG. 11A and Table 2) and inhibition of PAAN MIF nuclease activity against the RF (FIG. 111B) and PS30 substrates (FIG. 11C).
Cell culture, transfection, primary neuronal culture and treatment. SH-SY5Y cells (ATCC) were cultured in DMEM containing 10% fetal bovine serum and penicillin/streptomycin at 37° C. under 5% C02. The cells were transfected using PolyFect reagent (Qiagen). Parthanatos was induced by the treatment of 50 μM MNNG for 15 min in SH-SY5Y cells. ABT-888 or PAAN/MIF inhibitors were pretreated with indicated concentration 1 h before MNNG treatment and cell death were assessed after 24 h. Primary cortical neurons from WT, PAAN/MIF KO, E22Q KI or P1G KI embryos were prepared as previously described See Kam et al. (2018) Science 362:eaat8407. Briefly, the cortex was dissected and cultured at embryonic day 16 in neurobasal media supplemented with B-27, 0.5 mM L-glutamine, penicillin and streptomycin (Invitrogen). Primary neurons were infected with AAV2-control, AAV2-PAAN/MIF WT, AAV2-PAAN/MIF E22Q, AAV2-PAAN/MIF E22A or AAV2-MIF P1G (ViGene Biosciences) at days in vitro (DIV) 4-5. ABT-888 or PAAN/MIF inhibitors were applied to neurons 1 h before α-syn PFF treatment. The neuron growth medium was replaced with fresh medium alone or including inhibitors every 3-4 days. α-syn PFF was added at DIV 7 and further incubated for indicated times followed by the cell death assay or biochemical experiments.
Cell death and viability assessment. Primary cultured cortical neurons were treated with 5 μg/ml of α-syn PFF for 14 days and cell death was determined by staining of all nuclei with 7 μM Hoechst 33342 and dead cell nuclei with 2 μM propidium iodide (PI) (Invitrogen). The numbers of total and dead cells were counted with the Axiovision 4.6 software (Carl Zeiss). Cell viability was determined by fluorescence at an excitation wavelength 570 nm and an emission wavelength 585 nm using Alamar Blue (Invitrogen). […]

Where a SMILES comes first, the peptide text is derived from it. The star is where a group is joined. Cbz = O=C(OCc1ccccc1)*; CH2F = FC*

Take `C[C@]1(c2nc3c(C(N)=O)cccc3[nH]2)CCCN1` [ABT-888, reference compound]: in the assay with HT 22 cells, the “TNFα and Z-VAD-induced necroptosis” value was “not prevented”. In the assay with cortical neurons, the “α-syn PFF-induced nuclear translocation of PAAN/MIF and AIF” value is “attenuated”. Further, in the assay with SH-SY5Y cells [1], the “staurosporine (STS)-induced apoptotic cell death” value was “do not inhibit”.

In the case of `C=CC[C@@H]1/C=C(\C)C[C@H](C)C[C@H](OC)[C@H]2O[C@@](O)(C(=O)C(=O)N3CCCC[C@H]3C(=O)O[C@H](/C(C)=C/[C@@H]3CC[C@@H](O)[C@H](OC)C3)[C@H](C)[C@@H](O)CC1=O)[C@H](C)C[C@@H]2OC` [FK506, reference compound], in the assay with SH-SY5Y cells [2], the “inhibition of MNNG-induced parthanatic cell death” value is recorded as “failed to inhibit”.

As for `CN1C(=O)C(Cc2c[nH]c3ccccc23)NC1=S` (stereo not shown) [Nec-1, necrostatin, reference compound], the “TNFα and Z-VAD-induced necroptosis” value with HT 22 cells is listed as “prevents”.

For `CC(NC(=O)C(NC(=O)OCc1ccccc1)C(C)C)C(=O)NC(CC(=O)O)C(=O)CF` (stereo not drawn) [Z-VAD, reference compound] (Cbz-Val-Ala-Asp-CH2F; configuration not given here), in the assay with SH-SY5Y cells [1], the “staurosporine (STS)-induced apoptotic cell death” value is reported as “prevents”.

For `CO[C@H]1C[C@@H]2CC[C@@H](C)[C@@](O)(O2)C(=O)C(=O)N2CCCC[C@H]2C(=O)O[C@H]([C@H](C)C[C@@H]2CC[C@@H](O)[C@H](OC)C2)CC(=O)[C@H](C)/C=C(\C)[C@@H](O)[C@@H](OC)C(=O)[C@H](C)C[C@H](C)/C=C/C=C/C=C/1C` [rapamycin, reference compound], the “inhibition of MNNG-induced parthanatic cell death” value in the assay on SH-SY5Y cells [2] is reported as “failed to inhibit”.

For the origin of these results see patent US20220372014A1, “NEUROPROTECTIVE COMPOUNDS AND METHODS OF USE THEREOF” (The Johns Hopkins University, priority 2019, published 2022).
